US6506730B1, “Nasal transmucosal delivery of peptide conjugated with biocompatible polymers” (priority 1999, dated 2003)
Where no end group is shown, it is not given here.

Tests used:
[1] = oral administration; cited from earlier work
[2] = pH 5.5 to 6.0; cited from earlier work
[3] = system: calcium concentration in plasma; experiment: Comparison of calcium reduction effect of sCT and PEG-sCT after nasal administration to rats; assay type: in vivo, SD (Sprague Dawley) male rat; conditions: Time 960 (minutes after nasal administration); rat, n = 4; plasma calcium as ratio to primary value
[4] = system: calcium concentration in plasma; experiment: as above; assay type: in vivo, SD (Sprague Dawley) male rat; conditions: rat; for plasma calcium as % of pre-dose value: n = 4, plasma calcium as ratio to primary value
Method: SD (Sprague Dawley) male rat (220-300 g, Charles River Japan, Atsugi, Japan) was put under anesthesia by administrating 45 mg/kg of peptobarbital into interperitoneal. Bronchus and esophagus were cannulated with PE-250 tube and thigh arteria with SP-45 tube. 20 ul of a placebo and experimental drugs were administered into the nasal cavity of rats with a Hamilton syringe. The placebo used physiological saline and the experimental drug used PEG5000-sCT, PEG12000-sCT, PEG2000-sCT and sCT prepared from the Example 2. Salmon calcitonin was administered at dose of 0.05 to 4.5 IU per rat, and rats were grouped into 4. 200 ul of blood was taken at before, 5, 10, 30, 60, 120, 240, 480 and […] after the placebo and the experimental drugs were administered, and immediately centrifuged to obtain 100 ul of plasma. The calcium concentration in plasma was measured using a calcium assay kit (Sigma, USA), and calcium remaining efficiency was calculated as the calcium concentration before administration was 100. The unit of the measured calcium concentration in plasma was mg/dl, and the remaining efficiency was calculated as the ratio (%) to the primary value.
After the remaining coefficient was calculated according to each time, area-under the curve (AUC) was calculated about the average value of remaining coefficient at each time per experimental group. The reduction ratio of calcium concentration was calculated by the mathematical formula 1, and the results were represented in the table 1 (FIG. 6).
? ΓD(%)=(AUCCa-plac−AUCCa-sCT)/AUCCa-plac ? ┐100
where, AUCCa-plac was AUC from placebo administration to 960 minutes, and AUCCa-sCT was AUC from calcitonin and experimental drugs administration to 960 minutes.

[5] = nasal transmucosal administration

| Substance | absorption half life [1] | bioavailability [1] | elimination half life [1] | stability in acetate buffer [2] | plasma calcium as % of pre-dose value [3] | plasma calcium as % of pre-dose value ([4]; Time 0 (before administration = 100), nasal cavity) | plasma calcium as % of pre-dose value ([4]; Time 5 (minutes after nasal administration)) | plasma calcium as % of pre-dose value ([4]; Time 10 (minutes after nasal administration)) | plasma calcium as % of pre-dose value ([4]; Time 30 (minutes after nasal administration)) | plasma calcium as % of pre-dose value ([4]; Time 60 (minutes after nasal administration)) | plasma calcium as % of pre-dose value ([4]; Time 120 (minutes after nasal administration)) | plasma calcium as % of pre-dose value ([4]; Time 240 (minutes after nasal administration)) | plasma calcium as % of pre-dose value ([4]; Time 480 (minutes after nasal administration)) | time after which calcium concentration restored at the original concentration [4, 5] | time for which the calcium concentration was decreased / reduction effect represented after the nasal transmucosal administration [4, 5] |
| --- | --- | --- | --- | --- | --- | --- | --- | --- | --- | --- | --- | --- | --- | --- | --- |
| His-Asp-Tyr-Ala-Tyr-Asp-Lys-NH2 (HDYAYDK-NH2) [GHRP-6] | 15 min | 0.3% | 60 min | very stable |  |  |  |  |  |  |  |  |  |  |  |
| salmon calcitonin [sCT] |  |  |  |  | 101% | 100% | 98.9% | 93.7% | 95% | 98.7% | 97.8% | 100.3% | 101.6% | 2 h | 1 h |
